The values that follow are results of earlier work, collected in US12391711B2 (priority 2020, dated 2025).

For this data set the following is noted: human, Pain Res. Manag., 2005, 10: 15A-22A.

As for `CCCCCc1cc(O)c2c(c1)OC(C)(C)[C@@H]1CCC(C)=C[C@@H]21` [THC, (6aR,10aR)-6,6,9-trimethyl-3-pentyl-6a,7,8,10a-tetrahydro-6H-benzo[c]chromen-1-ol], the oral bioavailability was 4%-12%.
